# Assays:
# [1] = system: adult subjects with major depressive disorder (MDD); assay: Phase 2 placebo-controlled study in MDD, Montgomery-Asberg Depression Rating Scale (MADRS) total score; format: in vivo, human
# Experimental: (§1) A Phase 2, multicenter, double-blind, randomized, placebo-controlled study of the safety and efficacy of SP-624 in the treatment of adult subjects with major depressive disorder (MDD) as defined by the Diagnostic and Statistical Manual of Mental Disorders, Fifth Edition (DSM-5) was carried out. Following the successful completion of a Screening Phase, subjects were randomized to one of two treatment groups in a 1:1 ratio and received Compound 1 (SP-624) or placebo over a treatment period of four weeks (Treatment Group #1: SP-624 20 mg/day; Treatment Group #2: Placebo).
# (§2) Prior to initiating the 4-week treatment period, subjects completed a Screening/Baseline period of up to 28 days, during which time all screening assessments were performed, and any current depression medications discontinued. All screening assessments were completed before discontinuing any current depression medications. Subjects returned for a Baseline Visit to complete efficacy and safety assessments. During the treatment period, subjects returned to the investigative site to complete efficacy and safety assessments at the end of Weeks 1, 2, 3, and 4. After the final dose of study drug, subjects completed a follow-up period of two weeks and returned at the end of Weeks 5 and 6. Subjects may be treated with anti-depressant medications according to physician recommendations after completion of the Week 5 Visit.
# (§3) Each dose of Compound 1 was supplied as two capsules, each containing 10 mg of active pharmaceutical ingredient (API). Matching placebo capsules identical in shape and color to the active capsules were used.
# The primary efficacy endpoint was Change from Baseline to Week 4 in Montgomery-Asberg Depression Rating Scale (MADRS) total score.
# (§4) Secondary efficacy endpoints included: • Change from Baseline to Weeks 1, 2, and 3 in MADRS total score, • Change from Baseline to Weeks 1, 2, 3, and 4 in Clinical Global Impression-Severity (CGI-S) total score, • Change from Baseline to Week 5 and change from Week 4 to Week 5 in MADRS total score and CGI-S total score, • Change from Baseline to Week 2 and Week 4 in the 17-item Hamilton Depression Rating Scale (HAM D-17) total score, • Change from Baseline to Week 2 and Week 4 in the Sheehan Disability Scale (SDS), • Change from Baseline to Week 2 and Week 4 in the Quick Inventory of Depressive Symptomology-Self Report (QIDS-SR), and • Change from Baseline to Week 2 and Week 4 in the Quality of Life Enjoyment and Satisfaction Questionnaire-Short Form (Q-LES-Q-SF).
# [2] = system: adult subjects with major depressive disorder (MDD); assay: Phase 2 placebo-controlled study in MDD, Quality of Life Enjoyment and Satisfaction Questionnaire-Short Form (Q-LES-Q-SF); format: in vivo, human; conditions: mITT; for Change from Baseline, Q-LES-Q-SF Total at Week 2, LSM Difference (95% CI) / Change from Baseline, Q-LES-Q-SF Total at Week 4, LSM Difference (95% CI): 20 mg/day vs Placebo; for Change from Baseline, Q-LES-Q-SF Total at Week 2, Mean (SD) / Change from Baseline, Q-LES-Q-SF Total at Week 2, Median / Change from Baseline, Q-LES-Q-SF Total at Week 4, Mean (SD) / Change from Baseline, Q-LES-Q-SF Total at Week 4, Median / Q-LES-Q-SF Total at Week 2, Mean (SD) / Q-LES-Q-SF Total at Week 2, Median / Q-LES-Q-SF Total at Week 4, Mean (SD) / Q-LES-Q-SF Total at Week 4, Median: 20 mg/day
# Experimental: as §1, §2, §3, §4
# [3] = Male, 20 mg/day vs Placebo, mITT, MMRM
smiles,measurement,setting,value
"COC1=CC(=O)C[C@@H](C)[C@]12Oc1c(Cl)c(-c3nnc(C)o3)cc(OC)c1C2=O [SP-624, (2S,6′R)-7-Chloro-2′,4-dimethoxy-6′-methyl-6-(5-methyl-1,3,4-oxadiazol-2-yl)-3H-spiro[1-benzofuran-2,1′-cyclohex [2]ene]-3,4′-dione]","Change from Baseline, MADRS Total at Week 2, LSM Difference (95% CI)",[1]; [3],"−0.7 (−4.1, 2.8)"
same,"Change from Baseline, MADRS Total at Week 3, LSM Difference (95% CI)",[1]; [3],"2.2 (−1.3, 5.8)"
same,"Change from Baseline, MADRS Total at Week 4, LSM Difference (95% CI)",[1]; [3],"2.7 (−0.8, 6.3)"
same,"Change from Baseline, MADRS Total at Week 1, Mean (SD)","[1]; Male, 20 mg/day, mITT",−6.6 (7.04)
same,"Change from Baseline, MADRS Total at Week 1, Median","[1]; Male, 20 mg/day, mITT",−5
same,"Change from Baseline, MADRS Total at Week 2, Mean (SD)","[1]; Male, 20 mg/day, mITT",−9.8 (8.94)
same,"Change from Baseline, MADRS Total at Week 2, Median","[1]; Male, 20 mg/day, mITT",−9
same,"Change from Baseline, MADRS Total at Week 3, Mean (SD)","[1]; Male, 20 mg/day, mITT",−10.6 (9.28)
same,"Change from Baseline, MADRS Total at Week 3, Median","[1]; Male, 20 mg/day, mITT",−9
same,"Change from Baseline, MADRS Total at Week 4, Mean (SD)","[1]; Male, 20 mg/day, mITT",−11.4 (9.44)
same,"Change from Baseline, MADRS Total at Week 4, Median","[1]; Male, 20 mg/day, mITT",−10
same,"MADRS Total at Week 1, Mean (SD)","[1]; Male, 20 mg/day, mITT",25.5 (7.31)
same,"MADRS Total at Week 1, Median","[1]; Male, 20 mg/day, mITT",26
same,"MADRS Total at Week 2, Mean (SD)","[1]; Male, 20 mg/day, mITT",22.6 (9.35)
same,"MADRS Total at Week 2, Median","[1]; Male, 20 mg/day, mITT",24
same,"MADRS Total at Week 3, Mean (SD)","[1]; Male, 20 mg/day, mITT",21.4 (9.60)
same,"MADRS Total at Week 3, Median","[1]; Male, 20 mg/day, mITT",22
same,"MADRS Total at Week 4, Mean (SD)","[1]; Male, 20 mg/day, mITT",20.8 (9.61)
same,"MADRS Total at Week 4, Median","[1]; Male, 20 mg/day, mITT",21
same,lowering the MADRS score by an average of,"[1]; females, therapeutically effective",3.9 points
same,effect on MADRS score,[1]; males,no effect
same,"Change from Baseline, Q-LES-Q-SF Total at Week 2, LSM Difference (95% CI)",[2]; Female,"1.1 (−1.8, 3.9)"
same,"Change from Baseline, Q-LES-Q-SF Total at Week 4, LSM Difference (95% CI)",[2]; Female,"3.3 (−0.3, 6.8)"
same,"Change from Baseline, Q-LES-Q-SF Total at Week 2, Mean (SD)",[2]; Female,7.8 (10.32)
same,"Change from Baseline, Q-LES-Q-SF Total at Week 2, Median",[2]; Female,6
same,"Change from Baseline, Q-LES-Q-SF Total at Week 4, Mean (SD)",[2]; Female,11.4 (14.11)
same,"Change from Baseline, Q-LES-Q-SF Total at Week 4, Median",[2]; Female,10
same,"Q-LES-Q-SF Total at Week 2, Mean (SD)",[2]; Female,59.2 (11.32)
same,"Q-LES-Q-SF Total at Week 2, Median",[2]; Female,59
same,"Q-LES-Q-SF Total at Week 4, Mean (SD)",[2]; Female,62.1 (13.87)
same,"Q-LES-Q-SF Total at Week 4, Median",[2]; Female,59
same,"Change from Baseline, Q-LES-Q-SF Total at Week 2, LSM Difference (95% CI)",[2]; Male,"−2.2 (−6.7, 2.3)"
same,"Change from Baseline, Q-LES-Q-SF Total at Week 4, LSM Difference (95% CI)",[2]; Male,"−1.3 (−6.4, 3.7)"
same,"Change from Baseline, Q-LES-Q-SF Total at Week 2, Mean (SD)",[2]; Male,5.5 (10.39)
same,"Change from Baseline, Q-LES-Q-SF Total at Week 2, Median",[2]; Male,4
same,"Change from Baseline, Q-LES-Q-SF Total at Week 4, Mean (SD)",[2]; Male,7.1 (11.54)
same,"Change from Baseline, Q-LES-Q-SF Total at Week 4, Median",[2]; Male,6
same,"Q-LES-Q-SF Total at Week 2, Mean (SD)",[2]; Male,59.5 (12.80)
same,"Q-LES-Q-SF Total at Week 2, Median",[2]; Male,59
same,"Q-LES-Q-SF Total at Week 4, Mean (SD)",[2]; Male,61.5 (12.26)
same,"Q-LES-Q-SF Total at Week 4, Median",[2]; Male,61
